In patent US9139587B2, “N1-pyrazolospiroketone acetyl-CoA carboxylase inhibitors” (Pfizer Inc., priority 2009, dated 2015) one finds IC50 data, which are given here for 45 compounds.

The target of assay [1] is T1, recombinant human ACC1 (rhACC1) (Homo sapiens, UniProt Q13085, DEL44-44).
T1 construct: recombinant baculovirus containing full length human ACC1 cDNA; made in house; host or cells: SF9 insect cells (baculovirus)
Kind of assay: recombinant hACC1 Transcreener assay (direct inhibition of ACC1 activity). It is filed as biochemical. The note with it: Transcreener ADP detection FP assay, 50 μM ATP, 30 μM acetyl-CoA, 120 min at 25° C. The procedure, abridged:
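Full-length human ACC1 from baculovirus-infected SF9 cells, dephosphorylated with lambda phosphatase. Reaction in 50 mM HEPES pH 7.2 with 30 μM acetyl-CoA, 50 μM ATP, 10 mM KHCO3, 120 min at 25° C; ADP detected by Transcreener fluorescence polarisation.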

Assay [2] has as its target T2, recombinant human ACC2 (rhACC2) (Homo sapiens, UniProt O00763, V2141I).
T2 construct: a full length Cytomax clone of ACC2 was purchased from Cambridge Bioscience Limited; made in house; host or cells: CHO cells (tetracycline-induced, pcDNA5 FRT TO-TOPO)
Kind of assay: recombinant hACC2 Transcreener assay (direct inhibition of ACC2 activity). It is filed as biochemical. The note with it: Transcreener ADP detection FP assay, 50 μM ATP, 30 μM acetyl-CoA, 50 min at 25° C. Summed up:
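Full-length human ACC2 was expressed in CHO cells and avidin-purified. ADP formation was measured by Transcreener FP in 50 mM HEPES pH 7.2 with 30 μM acetyl-CoA, 50 μM ATP, 8 mM KHCO3 and 5 mM citrate. Reactions ran 50 min at 25 °C with 1% DMSO, then 1 h with stop/detect reagent.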

On to `CC(C)(C)n1ncc2c1C(=O)CC1(CCN(C(=O)c3cn4cccc4cn3)CC1)C2` [Example 11A-45], for which the IC50 in assay [1] turned out to be 1500 nM; in assay [2] it was 745 nM.
With `CC(C)(C)n1ncc2c1C(=O)CC1(CCN(C(=O)c3cnc4[nH]ccc4c3)CC1)C2` [Example 2A-23], the figures for the IC50 in assay [1] and in assay [2] were 32.3 nM and 23.3 nM, respectively.
Turning to `Cc1ccn2cc(C(=O)N3CCC4(CC3)CC(=O)c3c(cnn3C(C)C)C4)nc2c1` [Example 11A-40], the IC50 in assay [1] came to 1140 nM; in assay [2], 588 nM.
For `CC(C)(C)n1ncc2c1C(=O)CC1(CCN(C(=O)c3cc4cccnc4[nH]3)CC1)C2` [Example 12A-1, 1-tert-butyl-1′-(1H-pyrrolo[2,3-b]pyridine-2-carbonyl)-4,6-dihydrospiro[indazole-5,4′-piperidin]-7(1H)-one], the IC50 in assay [1] is 39.5 nM; in assay [2], 67.3 nM.
Take `CC(C)(C)n1ncc2c1C(=O)CC1(CCN(C(=O)c3ccc4[nH]ncc4c3)CC1)C2` [Example 2A-28]: the IC50 in assay [1] amounted to 47.8 nM; in assay [2], 17 nM.
Consider `CC(C)n1ncc2c1C(=O)CC1(CCN(C(=O)c3cnc4ccnn4c3N)CC1)C2` [Example 2A-40], for which the IC50 in assay [1] worked out at 262 nM; in assay [2] it was 116 nM.
Take `CC(C)n1ncc2c1C(=O)CC1(CCN(C(=O)c3cnc4cn[nH]c4c3)CC1)C2` [Example 11A-31]: the IC50 in assay [1] came out at 117 nM; in assay [2], 83.4 nM.
As for `Cc1nc2ccc(C(=O)N3CCC4(CC3)CC(=O)c3c(cnn3C(C)C)C4)cc2[nH]1` [Example 3A-1, 1-isopropyl-1′-(2-methyl-1H-benzo[d]imidazole-5-carbonyl)-4,6-dihydrospiro[indazole-5,4′-piperidin]-7(1H)-one], the results for the IC50 in assay [1] and in assay [2] were 96.1 nM and 48.6 nM, respectively.
On the same counts, the results for `CC(C)(C)n1ncc2c1C(=O)CC1(CCN(C(=O)c3ccc4cc[nH]c(=O)c4c3)CC1)C2` [Example 2A-31] are 43.5 nM and 28.8 nM.
For `CC(C)(C)n1ncc2c1C(=O)CC1(CCN(C(=O)c3ccc4c(c3)CC(=O)N4)CC1)C2` [Example 2A-30], the values for the IC50 in assay [1] and in assay [2] were 170 nM and 51 nM, respectively.
As for `CC(C)n1ncc2c1C(=O)CC1(CCN(C(=O)c3cc(Cl)c4[nH]ncc4c3)CC1)C2` [Example 2A-16], the IC50 in assay [1] amounted to 46.9 nM; in assay [2] it was 13.6 nM.
On to `Cc1ccn2cc(C(=O)N3CCC4(CC3)CC(=O)c3c(cnn3C(C)(C)C)C4)nc2c1` [Example 11A-27], for which the IC50 in assay [1] was 584 nM; in assay [2], 309 nM.
For the compound `CC(C)n1ncc2c1C(=O)CC1(CCN(C(=O)c3ccc4cnccc4n3)CC1)C2` [Example 2A-63], the IC50 in assay [1] was determined as 9330 nM; in assay [2], 3200 nM.
For `CC(C)n1ncc2c1C(=O)CC1(CCN(C(=O)c3cccc(-c4c[nH]cn4)c3)CC1)C2` [Example 11A-3], the IC50 in assay [1] was found to be 74.7 nM; in assay [2] it was 25.4 nM.
`Cc1nn(C(C)C)c2c1CC1(CCN(C(=O)c3ccc4[nH]cnc4c3)CC1)CC2=O` [Example 7A-1, 1′-(1H-benzo[d]imidazole-5-carbonyl)-1-isopropyl-3-methyl-4,6-dihydrospiro[indazole-5,4′-piperidin]-7(1H)-one]: the IC50 in assay [1] came out at 63.2 nM; in assay [2], 39.8 nM.
With `CC(C)n1ncc2c1C(=O)CC1(CCN(C(=O)c3c[nH]c4c(cnn4C)c3=O)CC1)C2` [Example 11A-66], the IC50 in assay [1] is 4080 nM; in assay [2], 1390 nM.
On to `CC(C)(C)n1ncc2c1C(=O)CC1(CCN(C(=O)c3ccc(-n4cccn4)nc3)CC1)C2` [Example 11A-59], for which the values for the IC50 in assay [1] and in assay [2] were 86.8 nM and 80.1 nM, respectively.
Consider `CC(C)n1ncc2c1C(=O)C(C)(C)C1(CCN(C(=O)c3ccc4[nH]ncc4c3)CC1)C2` [Example 6A-1, 1′-(1H-indazole-5-carbonyl)-1-isopropyl-6,6-dimethyl-4,6-dihydrospiro[indazole-5,4′-piperidin]-7(1H)-one], for which the IC50 in assay [1] was found to be 1530 nM; in assay [2], 373 nM.
On to `CC(C)n1ncc2c1C(=O)CC1(CCN(C(=O)c3cccc(-c4cc[nH]n4)c3)CC1)C2` [Example 11A-15], for which the 50% inhibitory concentration (IC50) was found to be 112 nM in assay [1] and 43.8 nM in assay [2].
On the same counts, the results for `CC(C)n1ncc2c1C(=O)CC1(CCN(C(=O)c3ccn4cncc4c3)CC1)C2` [Example 11A-60] are 404 nM and 171 nM.
In the case of `CC(C)n1ncc2c1C(=O)CC1(CCN(C(=O)c3ccc4c(c3)ncn4C)CC1)C2` [Example 11A-55], the IC50 was found to be 213 nM in assay [1] and 60.4 nM in assay [2].
`Cc1nc2c(F)cc(C(=O)N3CCC4(CC3)CC(=O)c3c(cnn3C(C)(C)C)C4)cc2[nH]1` [Example 2A-55]: the figures for the IC50 in assay [1] and in assay [2] were 266 nM and 105 nM, respectively.
In the case of `CC(C)n1ncc2c1C(=O)CC1(CCN(C(=O)c3cc(Cl)c4cn[nH]c4c3)CC1)C2` [Example 2A-65], the IC50 was 74.9 nM in assay [1] and 51.5 nM in assay [2].
`CC(C)n1ncc2c1C(=O)CC1(CCN(C(=O)c3cnc(N4CCOCC4)nc3)CC1)C2` [Example 2A-66]: the IC50 in assay [1] turned out to be 30000 nM; in assay [2] it was 14000 nM.
As to `CC(C)n1ncc2c1C(=O)CC1(CCN(C(=O)c3ccc4[nH]nc(C#N)c4c3)CC1)C2` [Example 11A-9], the IC50 in assay [1] was 34.4 nM; in assay [2], 19.7 nM.
Take `Cc1ccc(O)c(C(=O)N2CCC3(CC2)CC(=O)c2c(cnn2C(C)(C)C)C3)n1` [Example 11A-44]: the IC50 came out at 4170 nM in assay [1] and 4600 nM in assay [2].
For the compound `CC(C)n1ncc2c1C(=O)C(C)C1(CCN(C(=O)c3ccc4[nH]ncc4c3)CC1)C2` (single isomer, unassigned; (+)) [Example 5A-1, (+)-1′-(1H-indazole-5-carbonyl)-1-isopropyl-6-methyl-4,6-dihydrospiro[indazole-5,4′-piperidin]-7(1H)-one], the IC50 in assay [1] was 4480 nM; in assay [2], 866 nM.
In the same order, the values of `CC(C)n1nc(C#N)c2c1C(=O)CC1(CCN(C(=O)c3ccc4[nH]ncc4c3)CC1)C2` [Example 2A-76] are 6620 nM and 1500 nM.
For `CC(C)(C)n1ncc2c1C(=O)CC1(CCN(C(=O)c3cc(Cl)c4nc[nH]c4c3)CC1)C2` [Example 2A-48], the IC50 amounted to 51.1 nM in assay [1] and 17.2 nM in assay [2].
Consider `CC(C)(C)n1ncc2c1C(=O)CC1(CCN(C(=O)c3cc4ccccn4c3)CC1)C2` [Example 11A-36], for which the IC50 in assay [1] was 194 nM; in assay [2] it was 75.6 nM.
Consider `CC(C)n1ncc2c1C(=O)CC1(CCN(C(=O)c3ccc4c(=O)[nH]ccc4c3)CC1)C2` [Example 2A-14], for which the values for the IC50 in assay [1] and in assay [2] were 172 nM and 27 nM, respectively.
On the same counts, the results for `Cc1cc(C(=O)N2CCC3(CC2)CC(=O)c2c(cnn2C(C)(C)C)C3)ccc1Cl` [Example 1A-2] are 444 nM and 62.3 nM.
Consider `CC(C)n1ncc2c1C(=O)CC1(CCN(C(=O)c3cnc4c(cnn4C)c3N)CC1)C2` [Example 2A-58], for which the IC50 in assay [1] came out at 280 nM; in assay [2] it was 74.1 nM.
Turning to `CC(C)n1ncc2c1C(=O)CC1(CCN(C(=O)c3cc4ccccn4c3)CC1)C2` [Example 11A-43], the IC50 in assay [1] worked out at 143 nM; in assay [2], 45.6 nM.
Regarding `CC(C)(C)n1ncc2c1C(=O)CC1(CCN(C(=O)c3cc4cccn4cn3)CC1)C2` [Example 11A-69], the results for the IC50 in assay [1] and in assay [2] were 580 nM and 288 nM, respectively.
For `CC(C)(C)n1ncc2c1C(=O)CC1(CCN(C(=O)c3cccc(-c4ncc[nH]4)c3)CC1)C2` [Example 11A-64], the figures for the IC50 in assay [1] and in assay [2] were 105 nM and 24.4 nM, respectively.
Take `CC(C)(C)n1ncc2c1C(=O)CC1(CCN(C(=O)c3ccnc(-c4cc[nH]n4)c3)CC1)C2` [Example 11A-26]: the IC50 is 130 nM in assay [1] and 41.5 nM in assay [2].
Regarding `Cc1cc(C(=O)N2CCC3(CC2)CC(=O)c2c(cnn2C)C3)ccc1Cl` [Example 2A-4], the IC50 in assay [1] stood at 8730 nM; in assay [2], 2530 nM.
For the compound `CC(C)(C)n1ncc2c1C(=O)CC1(CCN(C(=O)c3nn(-c4ccccc4)nc3N)CC1)C2` [Example 11A-12], the IC50 came out at 152 nM in assay [1] and 850 nM in assay [2].
With `Cc1cc(C(=O)N2CCC3(CC2)CC(=O)c2c(cnn2CC(C)C)C3)ccc1Cl` [Example 2A-5], the figures for the IC50 in assay [1] and in assay [2] were 1220 nM and 481 nM, respectively.
For `CC(C)n1ncc2c1C(=O)CC1(CCN(C(=O)c3cc(Cl)c4nc[nH]c4c3)CC1)C2` [Example 2A-47], the IC50 amounted to 48.2 nM in assay [1] and 15.9 nM in assay [2].
In the case of `CC(C)(C)n1ncc2c1C(=O)CC1(CCN(C(=O)c3cc4ccncc4[nH]3)CC1)C2` [Example 11A-73], the IC50 in assay [1] and in assay [2] was 37.4 nM in each case.
For `Cn1c(=O)[nH]c2ccc(C(=O)N3CCC4(CC3)CC(=O)c3c(cnn3C(C)(C)C)C4)cc21` [Example 2A-49], the IC50 turned out to be 92.1 nM in assay [1] and 71.6 nM in assay [2].
On the same counts, the results for `CC(C)(C)n1ncc2c1C(=O)CC1(CCN(C(=O)c3ccc(N4CCOCC4)cn3)CC1)C2` [Example 11A-57] are 9230 nM and 2330 nM.
Turning to `CC(C)(C)n1ncc2c1C(=O)CC1(CCN(C(=O)c3cccc(-c4c[nH]cn4)c3)CC1)C2` [Example 11A-7], the results for the IC50 in assay [1] and in assay [2] were 36.8 nM and 10.4 nM, respectively.

Broadly, the IC50 is the point on the concentration scale where inhibition reaches its midpoint.
